In patent publication US9670206B2, “Pyrido[4,3-B]pyrazine-2-carboxamides as neurogenic agents for the treatment of neurodegenerative disorders” (Hoffmann-La Roche Inc., priority 2013, dated 2017):

tested on: human embryonic stem cell derived neural stem cells (NSCs); test: Neural stem cell proliferation assay (neurogenesis assay, ATP levels by CellTiterGlo); assay type: cell-based; details: 96 h, compound concentration at which 150% activity of control (100%) is reached, NSC proliferation, ATP readout after 4 days incubation
Protocol: Neural Stem Cell Proliferation Assay
Neurogenic properties of small molecules are determined based on the proliferation of human embryonic stem cell derived neural stem cells (NSCs) which were derived via a dual smad inhibition as previously described (Chambers, S. M., et al., Highly efficient neural conversion of human ES and iPS cells by dual inhibition of SMAD signaling, Nature biotechnology, 2009. 27(3): p. 275-80.) Compounds respond is measured by the increase in cells based on ATP levels (Promega:CellTiterGlo®) after an incubation period of 4 days. NSCs are thawed and expanded over 3 passages. On the 14th day, NSCs are seeded in Polyornithin/Laminin coated 384 well plates at a cell density of 21,000 cells/cm^2 in a media volume of 38 μl. 4 hours after cell seeding, compound solutions are added at a volume of 2 μl. Stock solutions of the compounds (water, 5% DMSO) are diluted to obtain a dose response (11 points, dilution factor is 2), ranging from 8 μM to 8 nM. Controls are run to consistently determine the neurogenic properties of the cells: Negative (neutral) control is cell culture Media (final DMSO concentration: 0.25%). Positive controls are: • 1. cell culture Media+100 ng/ml FGF2 (final DMSO concentration: 0.1%) • 2. cell culture Media+20 ng/ml EGF (final DMSO concentration: 0.1%) • 3. cell culture Media+100 ng/ml Wnt3a (final DMSO concentration: 0.1%) After 4 days incubation at 37° C., 5% CO2, the amount of ATP per well is quantified. The ATP concentration is proportional to the cell number. ATP is quantified by using the Promega CellTiterGlo® kit. The CellTiterGlo® reagents contain a cell lysis buffer, a thermo stable luciferase (UltraGlo™ recombinant luciferase), magnesium and luciferin. Luciferin reacts with ATP producing oxyluciferin, AMP and light. The luminescence signal is proportional to the ATP content. The value of negative (neutral) control is determined for each assay plate by taking the average of 16 negative control wells. The neurogenic compound response is calculated for each compound as (compound/Negative Control)*100. The values of EC150 from the dose response curve are determined for each test compound. The EC150 is the compound concentration at which 150% activity of control (100%) is reached.

Q: NC(=O)c1cnc2cncc(-c3ccc(Cl)cc3)c2n1 [Example 1, 8-(4-Chlorophenyl)pyrido[4,3-b]pyrazine-2-carboxamide] was tested. Which EC (150% of control) did it give?
A: 0.21 µM

Q: Which EC (150% of control) does the source give for NC(=O)c1cnc2cncc(-c3ccc(C(F)(F)F)cc3)c2n1 [Example 2, 8-(4-(Trifluoromethyl)phenyl)pyrido[4,3-b]pyrazine-2-carboxamide] here?
A: 0.3 µM

Q: How did the EC (150% of control) turn out when N#CC1(NC(=O)c2cnc3cncc(Br)c3n2)CC1 [Example 3, 8-Bromo-N-(1-cyanocyclopropyl)pyrido[4,3-b]pyrazine-2-carboxamide] was run?
A: 2.32 µM

Q: How did the EC (150% of control) turn out when O=C(c1cnc2cncc(Br)c2n1)N1CCOCC1 [Example 4, (8-Bromopyrido[4,3-b]pyrazin-2-yl)(morpholino)methanone] was run?
A: 0.07 µM

Q: CC(NC(=O)c1cnc2cncc(-c3ccc(Cl)cc3)c2n1)C(C)(C)O (stereo not drawn) [Example 5, 8-(4-Chlorophenyl)-N-(3-hydroxy-3-methylbutan-2-yl)pyrido[4,3-b]pyrazine-2-carboxamide] was tested. Which EC (150% of control) did it give?
A: 0.89 µM

Q: With CC(NC(=O)c1cnc2cncc(-c3ccc(C(F)(F)F)cc3)c2n1)C(C)(C)O (stereo not drawn) [Example 6, N-(3-Hydroxy-3-methylbutan-2-yl)-8-(4-(trifluoromethyl)phenyl)pyrido[4,3-b]pyrazine-2-carboxamide] as the molecule, how does the EC (150% of control) read?
A: 0.38 µM

Q: For N#CC1(NC(=O)c2cnc3cncc(-c4ccc(Cl)cc4)c3n2)CC1 [Example 7, 8-(4-Chlorophenyl)-N-(1-cyanocyclopropyl)pyrido[4,3-b]pyrazine-2-carboxamide], which EC (150% of control) is on record?
A: 0.39 µM

Q: N#CC1(NC(=O)c2cnc3cncc(-c4ccc(C(F)(F)F)cc4)c3n2)CC1 [Example 8, N-(1-Cyanocyclopropyl)-8-(4-(trifluoromethyl)phenyl)pyrido[4,3-b]pyrazine-2-carboxamide] was tested. Which EC (150% of control) did it give?
A: 0.39 µM

Q: For O=C(c1cnc2cncc(-c3ccc(Cl)cc3)c2n1)N1CCOCC1 [Example 9, (8-(4-Chlorophenyl)pyrido[4,3-b]pyrazin-2-yl)(morpholino)methanone], which EC (150% of control) is on record?
A: 0.65 µM

Q: With O=C(c1cnc2cncc(-c3ccc(C(F)(F)F)cc3)c2n1)N1CCOCC1 [Example 10, Morpholino(8-(4-(trifluoromethyl)phenyl)pyrido[4,3-b]pyrazin-2-yl)methanone] as the molecule, how does the EC (150% of control) read?
A: 2.96 µM

Q: Which EC (150% of control) does the source give for O=C(NCc1ccccc1)c1cnc2cncc(-c3ccc(C(F)(F)F)cc3)c2n1 [Example 11, N-Benzyl-8-(4-(trifluoromethyl)phenyl)pyrido[4,3-b]pyrazine-2-carboxamide] here?
A: 0.41 µM

Q: For O=C(NCc1ccccc1)c1cnc2cncc(-c3ccc(Cl)cc3)c2n1 [Example 12, N-Benzyl-8-(4-chlorophenyl)pyrido[4,3-b]pyrazine-2-carboxamide], which EC (150% of control) is on record?
A: 0.26 µM

Q: NC(=O)c1cnc2cncc(-c3ccc(Cl)cc3Cl)c2n1 [Example 13, 8-(2,4-Dichlorophenyl)pyrido[4,3-b]pyrazine-2-carboxamide] was tested. Which EC (150% of control) did it give?
A: 0.28 µM

Q: For NC(=O)c1cnc2cncc(-c3ccc(F)cc3)c2n1 [Example 14, 8-(4-Fluorophenyl)pyrido[4,3-b]pyrazine-2-carboxamide], which EC (150% of control) is on record?
A: 0.1 µM

Q: With NC(=O)c1cnc2cncc(-c3cc(F)c(F)c(F)c3)c2n1 [Example 15, 8-(3,4,5-Trifluorophenyl)pyrido[4,3-b]pyrazine-2-carboxamide] as the molecule, how does the EC (150% of control) read?
A: 0.55 µM

Q: How did the EC (150% of control) turn out when NC(=O)c1cnc2cncc(-c3ccccc3F)c2n1 [Example 16, 8-(2-Fluorophenyl)pyrido[4,3-b]pyrazine-2-carboxamide] was run?
A: 0.06 µM

Q: Which EC (150% of control) does the source give for NC(=O)c1cnc2cncc(-c3ccc(C(F)(F)F)cc3F)c2n1 [Example 17, 8-(2-Fluoro-4-(trifluoromethyl)phenyl)pyrido[4,3-b]pyrazine-2-carboxamide] here?
A: 0.08 µM

Q: NC(=O)c1cnc2cncc(-c3ccc(Cl)nc3)c2n1 [Example 18, 8-(6-Chloropyridin-3-yl)pyrido[4,3-b]pyrazine-2-carboxamide] was tested. Which EC (150% of control) did it give?
A: 0.21 µM

Q: How did the EC (150% of control) turn out when NC(=O)c1cnc2cncc(-c3ccc(OC(F)(F)F)cc3)c2n1 [Example 19, 8-(4-(Trifluoromethoxy)phenyl)pyrido[4,3-b]pyrazine-2-carboxamide] was run?
A: 0.09 µM

Q: How did the EC (150% of control) turn out when NC(=O)c1cnc2cncc(-c3cc(C(F)(F)F)ccc3F)c2n1 [Example 20, 8-(2-Fluoro-5-(trifluoromethyl)phenyl)pyrido[4,3-b]pyrazine-2-carboxamide] was run?
A: 0.22 µM

Q: For NC(=O)c1cnc2cncc(-c3cccc(OC(F)(F)F)c3)c2n1 [Example 21, 8-(3-(Trifluoromethoxy)phenyl)pyrido[4,3-b]pyrazine-2-carboxamide], which EC (150% of control) is on record?
A: 0.21 µM

Q: With NC(=O)c1cnc2cncc(-c3ccc(Cl)cc3F)c2n1 [Example 22, 8-(4-Chloro-2-fluorophenyl)pyrido[4,3-b]pyrazine-2-carboxamide] as the molecule, how does the EC (150% of control) read?
A: 0.07 µM

Q: For NC(=O)c1cnc2cncc(-c3ccc(Cl)c(F)c3)c2n1 [Example 23, 8-(4-Chloro-3-fluorophenyl)pyrido[4,3-b]pyrazine-2-carboxamide], which EC (150% of control) is on record?
A: 0.1 µM

Q: For NC(=O)c1cnc2cncc(-c3ccc(C(F)(F)F)c(F)c3)c2n1 [Example 24, 8-(3-Fluoro-4-(trifluoromethyl)phenyl)pyrido[4,3-b]pyrazine-2-carboxamide], which EC (150% of control) is on record?
A: 0.18 µM

Q: For NC(=O)c1cnc2cncc(C3=CCOCC3)c2n1 [Example 25, 8-(3,6-Dihydro-2H-pyran-4-yl)pyrido[4,3-b]pyrazine-2-carboxamide], which EC (150% of control) is on record?
A: 0.66 µM

Q: How did the EC (150% of control) turn out when NC(=O)c1cnc2cncc(-c3cccc(C(F)(F)F)c3)c2n1 [Example 26, 8-(3-(Trifluoromethyl)phenyl)pyrido[4,3-b]pyrazine-2-carboxamide] was run?
A: 0.43 µM

Q: Which EC (150% of control) does the source give for NC(=O)c1cnc2cncc(-c3ccc(F)c(F)c3)c2n1 [Example 27, 8-(3,4-Difluorophenyl)pyrido[4,3-b]pyrazine-2-carboxamide] here?
A: 0.12 µM

Q: For O=C(c1cnc2cncc(-c3ccc(C(F)(F)F)cc3)c2n1)N1CCC(O)C1 (stereo not drawn) [Example 28, (3-Hydroxypyrrolidin-1-yl)(8-(4-(trifluoromethyl)phenyl)pyrido[4,3-b]pyrazin-2-yl)methanone], which EC (150% of control) is on record?
A: 0.29 µM

Q: NC(=O)c1cnc2cncc(-c3ccc(CO)cc3)c2n1 [Example 29, 8-(4-(Hydroxymethyl)phenyl)pyrido[4,3-b]pyrazine-2-carboxamide] was tested. Which EC (150% of control) did it give?
A: 0.05 µM

Q: With O=C(c1cnc2cncc(-c3ccc(Cl)cc3)c2n1)N1CCC(O)C1 (stereo not drawn) [Example 30, (8-(4-Chlorophenyl)pyrido[4,3-b]pyrazin-2-yl)(3-hydroxypyrrolidin-1-yl)methanone] as the molecule, how does the EC (150% of control) read?
A: 0.69 µM

Q: With O=C(NCc1ccccc1)c1cnc2cncc(-c3cccnc3)c2n1 [Example 31, N-Benzyl-8-(pyridin-3-yl)pyrido[4,3-b]pyrazine-2-carboxamide] as the molecule, how does the EC (150% of control) read?
A: 0.47 µM

Q: With O=C(c1cnc2cncc(-c3ccc(Cl)cc3)c2n1)N1CCS(=O)(=O)CC1 [Example 32, [8-(4-Chlorophenyl)pyrido[3,4-b]pyrazin-2-yl]-(1,1-dioxo-1,4-thiazinan-4-yl)methanone] as the molecule, how does the EC (150% of control) read?
A: 0.84 µM

Q: For O=C(c1cnc2cncc(-c3ccc(C(F)(F)F)cc3)c2n1)N1CCS(=O)(=O)CC1 [Example 33, (1,1-Dioxo-1,4-thiazinan-4-yl)-[8-[4-(trifluoromethyl)phenyl]pyrido[3,4-b]pyrazin-2-yl]methanone], which EC (150% of control) is on record?
A: 1.65 µM

Q: For N#Cc1ccc(-c2cncc3ncc(C(N)=O)nc23)cc1 [Example 34, 8-(4-Cyanophenyl)pyrido[4,3-b]pyrazine-2-carboxamide], which EC (150% of control) is on record?
A: 0.15 µM

Q: CC(C)(C)NC(=O)c1cnc2cncc(-c3ccc(C(F)(F)F)cc3)c2n1 [Example 35, N-tert-Butyl-8-(4-(trifluoromethyl)phenyl)pyrido[4,3-b]pyrazine-2-carboxamide] was tested. Which EC (150% of control) did it give?
A: 0.32 µM

Q: CC(NC(=O)c1cnc2cncc(-c3ccc(Cl)cc3Cl)c2n1)C(C)(C)O (stereo not drawn) [Example 36, 8-(2,4-Dichlorophenyl)-N-(3-hydroxy-3-methylbutan-2-yl)pyrido[4,3-b]pyrazine-2-carboxamide] was tested. Which EC (150% of control) did it give?
A: 1.5 µM

Q: How did the EC (150% of control) turn out when CC(NC(=O)c1cnc2cncc(-c3ccccc3Cl)c2n1)C(C)(C)O (stereo not drawn) [Example 37, 8-(2-Chlorophenyl)-N-(3-hydroxy-3-methylbutan-2-yl)pyrido[4,3-b]pyrazine-2-carboxamide] was run?
A: 1.13 µM

Q: O=C(c1cnc2cncc(-c3ccc(Cl)cc3F)c2n1)N1CCC(O)C1 (stereo not drawn) [Example 38, (8-(4-Chloro-2-fluorophenyl)pyrido[4,3-b]pyrazin-2-yl)(3-hydroxypyrrolidin-1-yl)methanone] was tested. Which EC (150% of control) did it give?
A: 0.1 µM

Q: With O=C(c1cnc2cncc(-c3ccc(Cl)cc3Cl)c2n1)N1CCC(O)C1 (stereo not drawn) [Example 39, (8-(2,4-Dichlorophenyl)pyrido[4,3-b]pyrazin-2-yl)(3-hydroxypyrrolidin-1-yl)methanone] as the molecule, how does the EC (150% of control) read?
A: 0.11 µM
